Values joined by “and” are separate entries in the source; they are usually repeats but may differ in a detail not shown here. Identical values can stand only once.
How the values were obtained:
[1] = tested on: SH-SY5Y cells; assay: Intracellular Ca content by ICP-MS, dark or green light; assay type: cell-based; details: for Ca uptake, Dark: kept in the dark
Experimental: Six hours after compound addition, the cells were irradiated with green light or kept in the dark. Intracellular Ca^2+ levels were then assessed by ICP-MS 24 h after light activation. The NMDA and α-amino-3-hydroxy-5-methyl-4-isoxazole propionic acid (AMPA) receptors being glutamate-gated cation channels allow for an increase of calcium permeability of the neuron membrane; we also used L-glutamic acid (GA, 10 μM), a known NMDA and AMPA activator, as positive control in this assay.
1 mL of SH-SY5Y cells were seeded in 12-well plates (Greiner, No. 665180; 500.000 cells per well). […] After an additional 24 h of incubation, the cells were trypsined, collected, and centrifuged. The resulting cell pellet was dissolved in 1 mL of PBS and counted via a BioRad TC20 automated cell counter. Afterward, the solution was centrifuged and washed again with PBS with subsequent centrifuging two more times. The resulting cell pellet was digested in 0.5 mL of HNO3 overnight in a hot oven (90 °C). The solution was diluted with Milli-Q water to 10 mL, and the Ru and Ca content [ppb] was measured via ICP-MS.

[2] = tested on: U-87MG cells; assay: Ru cellular uptake by ICP-MS; assay type: in vitro ADME; details: 10 μM; for Ru cellular uptake: dark
Excerpt: The cellular accumulation of Ru^2+ can provide additional information about how differences in anticancer efficacy may relate to the amount of the Ru prodrug in the cell before light activation. For instance, low uptake often leads to limited cytotoxicity due to limited access to the drug target. […] Similar results have been observed in A549 lung cancer cells previously.[56] […] For unknown reasons, it appears that the amine bridge in the i-diqa ligand facilitates the uptake of ruthenium compound [3](PF6)2.
Materials: 65% nitric acid (Suprapur, Merck) was used in the sample digestion process, while diluted 1% nitric acid (v/v) was employed as a carrying solution throughout the ICP measurements. For preparation of calibration and internal standards, National Institute of Standards and Technology (NIST)-traceable 1000 mg/L elemental standards were used (TraceCERT, Fluka). Approximately 18 MΩ cm^–1 water (Milli-Q) was employed in all sample preparation and analysis steps.
Instrumentation: Calibration standards were prepared in a Secuflow fume hood (SCALA) to prevent contamination by atmospheric particulates. The standard samples and measurement samples were analyzed for trace elements using the NexION 2000 (PerkinElmer) ICP-MS instrument equipped with a concentric glass nebulizer and a Peltier-cooled glass spray chamber. An SC2 DX autosampler (PerkinElmer) was connected to ICP-MS for sample introduction. Syngistix software for ICP-MS (v.2.5, PerkinElmer) was used for all data recording and processing. Five trace elemental calibration standards for ICP-MS analysis were prepared using NIST-traceable 1000 mg/L Ru standards: 0, 1, 5, 20, and 100 μg/L. Samples were analyzed without dilution in the original delivery containers to minimize the possibility of contamination. Here, 10 μg/L Rh and In were used as internal standards. To check the calibration, samples were analyzed with a blank measurement and a repeat measurement with one of the calibration standards.
Sample preparation: 1 mL of U-87MG cells were seeded in 12-well plates (Greiner, No. 665180; 400.000 cells per well). […] Afterward, the cells were trypsined, collected, and centrifuged. The resulting cell pellet was dissolved in 1 mL of PBS and counted via a BioRad TC20 automated cell counter. Afterward, the solution was centrifuged and washed again with PBS with subsequent centrifuging. This washing step was repeated twice. The resulting cell pellet was digested in 0.5 mL of 65% HNO3 overnight in a hot oven (90 °C). The solution was diluted with Milli-Q water to 10 mL, and the Ru content [ppb] was measured by ICP-MS.

[3] = cited from earlier work
[4] = tested on: U-87MG cells; assay: Cell fractioning (FractionPREP kit), Ru content by ICP-MS; assay type: in vitro ADME; details: 10 μM, 24 h
Experimental: Ru content in different compartments was determined via a FractionPREP Cell Fractionation Kit (Abcam, Cambridge, U.K., no 288085). U-87MG cells were seeded in 25 cm^2 OptiMEM medium (1.5 × 10^6 cells) for 24 h. […] Untreated cells served as control. After 24 h of incubation, the cells were collected, counted, and fractioned according to the manufacturer’s procedure. In short, the cells were collected and centrifuged at 700g for 5 min. The cells were then washed with ice-cold PBS (1 mL) followed by 5 min centrifuging at 700g, and the supernatant was removed. The cell pellet was resuspended in 1 mL of ice-cold PBS, transferred into a 1.5 mL Eppendorf tube, and spun for 5 min at 700g, and the supernatant was removed. The pellet was resuspended in 400 μL of Extraction Buffer III/Cytosol Extraction Buffer Mix [containing 2 μL of dithiothreitol (DTT) and 2 μL of protease inhibitor cocktail per mL]. The cells were mixed well by carefully pipetting up and down (ca. 5 times). The sample was incubated on ice for 20 min with gentle tapping three to four times every 5 min. Afterward, the sample was centrifuged at 700g for 10 min. The supernatant was collected (cytosolic fraction) and kept on ice. The resulting pellet was again resuspended in 400 μL of ice-cold Extraction Buffer IV/Membrane Extraction Buffer-A Mix (containing 2 μL of DTT and 2 μL of protease inhibitor cocktail per mL) and pipetted several times, and the sample was vortexed for 10–15 s to mix well. Then, 22 μL of Lysis Buffer/Membrane Extraction Buffer-B was added and vortexed for 5 s. The samples were incubated for 1 min on ice. Afterward, the sample was vortexed again for 5 s and centrifuged for 5 min at 1000g. The supernatant was immediately transferred to a clean, prechilled 1.5 mL tube and kept on ice (membrane fraction). The pellet was again resuspended in 200 μL of ice-cold Extraction Buffer V/Nuclear Extraction Buffer mix (containing 2 μL of DTT and 2 μL of protease inhibitor cocktail per mL), vortexed for 15 s, and kept on ice for 40 min with constant vortex for 15 s every 10 min. The sample was then microcentrifuged at top speed for 10 min. The resulting supernatant was transferred in a clean, prechilled 1.5 mL tube (nuclear fraction) and kept on ice. The remaining cytoskeletal fraction was dissolved in 100 μL of 0.2% SDS containing 10 mM DTT solution. All samples were digested over 65% HNO3 (0.5 mL) in an oven hot oven (90 °C). The solution was diluted with Milli-Q water to 10 mL, and the Ru content [ppb] was measured by ICP-MS.

Row | SMILES | Ca uptake, Dark ([1]; 20 μM) | Uptake in % ([2]; 6 h) | Ru cellular uptake ([2]; 6 h incubation) | Uptake in % ([2]; 24 h) | Ru cellular uptake ([2]; 24 h incubation) | LogP [3] | Ru content, Cytosol [4] | Ru content, Membrane [4] | Ru content, Nucleus [4] | increase of intracellular Ca^2+ content after light irradiation ([1]; 10 μM, green light versus dark) | Ca uptake, Dark ([1]; 10 μM)
1 | CSCCO.F[P-](F)(F)(F)(F)F.F[P-](F)(F)(F)(F)F.[Ru+2].c1ccc(-c2cccc(-c3ccccn3)n2)nc1.c1ccc2cc(-c3cc4ccccc4cn3)ncc2c1 [[2](PF6)2] | 279.12 ± 56 ng Ca/mio. cells and 279 ng Ca/mio. cells | 0.8% and 0.82% | 0.5 ng Ru/mio. cells and 0.54 ± 0.08 ng Ru/mio. cells | 1.5% | 0.82 ± 0.09 ng Ru/mio. cells | 3.08 | 0.18 ng Ru/mio. cells and 0.18 ± 0.06 ng Ru/mio. cells | 0.83 ng Ru/mio. cells and 0.83± 0.57 ng Ru/mio. cells | 0.03 ± 0.03 ng Ru/mio. cells | – | –
2 | CSCCO.F[P-](F)(F)(F)(F)F.F[P-](F)(F)(F)(F)F.[Ru+2].c1ccc(-c2cccc(-c3ccccn3)n2)nc1.c1ccc2cc(Nc3cc4ccccc4cn3)ncc2c1 [[3](PF6)2] | – | 12.4% | 2.1 ng Ru/mio. cells and 2.14 ± 0.49 ng Ru/mio. cells | ~11.5% | 1.98 ng Ru/mio. cells and 1.98 ± 0.33 ng Ru/mio. cells | 2.92 | 0.07 ± 0.05 ng Ru/mio. cells | 0.88 ng Ru/mio. cells and 0.88 ± 0.25 ng Ru/mio. cells | 0.17 ng Ru/mio. cells and 0.17 ± 0.06 ng Ru/mio. cells | 3 fold | 163.37 ± 93 ng Ca/mio. cells and 163 ng Ca/mio. cells

Source: article PMC11833736 (ACS Pharmacology & Translational Science, 2025)
